# Experiments:
# Enterobacter cloacea = assay: antibiogram by diffusion on Mueller-Hinton agar with antibiotic wafers; type: cell-based; details: Table C1, six wafers, disk loads of Table B
# Proteus mirabilis = assay: as above; type: cell-based; details: Table C1, six wafers, disk loads of Table B
# Klebsiella oxytoca = assay: as above; type: cell-based; details: Table C1; K. oxytoca phenotype Wild; six wafers, disk loads of Table B
# Klebsiella pneumoniae = assay: as above; type: cell-based; details: for resistance (I, R) or sensitivity (S): Table C1, six wafers, disk loads of Table B; for resistant (I/R) or sensitive (S): Table C2, sixteen wafers, square dish
# Enterobacter aerogenes = assay: as above; type: cell-based; details: Table C1, six wafers, disk loads of Table B
# Escherichia coli = assay: as above; type: cell-based; details: for synergy zone between two antibiotic wafers placed side by side: E. coli strain of BSBL phenotype, champagne-cork shaped inhibition zone; for resistance (I, R) or sensitivity (S): Table C1, disk loads of Table B; for resistant (I/R) or sensitive (S): Table C2, square dish
# BSBL bacteria = details: all of the BSBL bacteria in Table C1
# Source text: Synergies are generated with the method on agar by the antibiotics diffusing in the agar as a result of the fact that providing the distance between two antibiotics is small enough (in the range 2 centimeters (cm) to 2.5 cm for Gram negative bacteria) they are capable of diffusing over a common portion of the agar, and as a result it is the association of the two antibiotics in this specific location that makes it possible, where appropriate, to see the appearance of a new inhibition zone, which is the synergy zone.
# In the event of synergy occurring, it is possible to see mechanisms of synergy between two antibiotics since an additional inhibition zone appears generally between the two antibiotics in question. It may be in the form of an enlargement of the diameter around the disk A going towards the disk B if A and B present mutual synergy.
# The BSBL phenotype includes a synergy phenotype between ceftriaxone and clavulanic acid, and thus between CRO and TCC or AMC (for all of the BSBL bacteria in the table).
structure (smiles),measurement,setting,value
"CO/N=C(\C(=O)N[C@@H]1C(=O)N2C(C(=O)O)=C(CSc3nc(=O)c(=O)[nH]n3C)CS[C@H]12)c1csc(N)n1 [CRO, ceftriaxone]","resistance (I, R) or sensitivity (S)",Enterobacter cloacea; E. cloacae phenotype BSBL,R
same,"resistance (I, R) or sensitivity (S)",Enterobacter cloacea; E. cloacae phenotype Wild,S
same,"resistance (I, R) or sensitivity (S)",Proteus mirabilis; P. mirabilis phenotype Hl cephalosporinase,R
same,"resistance (I, R) or sensitivity (S)",Proteus mirabilis; P. mirabilis phenotype Hl penicillinase,S
same,"resistance (I, R) or sensitivity (S)",Proteus mirabilis; P. mirabilis phenotype Inhibitor resistant penicillinase,S
same,"resistance (I, R) or sensitivity (S)",Proteus mirabilis; P. mirabilis phenotype Ll penicillinase,S
same,"resistance (I, R) or sensitivity (S)",Proteus mirabilis; P. mirabilis phenotype Wild,S
same,"resistance (I, R) or sensitivity (S)",Klebsiella oxytoca,S
same,"resistance (I, R) or sensitivity (S)",Klebsiella pneumoniae; K. pneumoniae phenotype BSBL,I/R
same,"resistance (I, R) or sensitivity (S)",Klebsiella pneumoniae; K. pneumoniae phenotype Carbapenemase,R
same,"resistance (I, R) or sensitivity (S)",Klebsiella pneumoniae; K. pneumoniae phenotype Hl cephalosporinase,I/R
same,"resistance (I, R) or sensitivity (S)",Klebsiella pneumoniae; K. pneumoniae phenotype Hl penicillinase,I
same,"resistance (I, R) or sensitivity (S)",Klebsiella pneumoniae; K. pneumoniae phenotype Ll penicillinase,S
same,"resistance (I, R) or sensitivity (S)",Klebsiella pneumoniae; K. pneumoniae phenotype Wild,S
same,resistant (I/R) or sensitive (S),Klebsiella pneumoniae; K. pneumoniae phenotype Cephalosporinase + R to aminosides + R to cotrimoxazole,R
same,resistant (I/R) or sensitive (S),Klebsiella pneumoniae; K. pneumoniae phenotype Wild,R
same,"resistance (I, R) or sensitivity (S)",Enterobacter aerogenes; E. aerogenes phenotype BSBL,R
same,"resistance (I, R) or sensitivity (S)",Enterobacter aerogenes; E. aerogenes phenotype Wild,S
same,synergy zone between two antibiotic wafers placed side by side,Escherichia coli,synergy zone
same,synergy zone between two antibiotic wafers placed side by side,Escherichia coli; listed as ceftriaxone,synergy
same,"resistance (I, R) or sensitivity (S)","Escherichia coli; E. coli phenotype BSBL, six wafers",R
same,"resistance (I, R) or sensitivity (S)","Escherichia coli; E. coli phenotype Carbapenemase, six wafers",R
same,"resistance (I, R) or sensitivity (S)","Escherichia coli; E. coli phenotype Hl cephalosporinase, six wafers",R
same,"resistance (I, R) or sensitivity (S)","Escherichia coli; E. coli phenotype Hl penicillinase, six wafers",S
same,"resistance (I, R) or sensitivity (S)","Escherichia coli; E. coli phenotype Inhibitor resistant penicillinase, six wafers",S
same,"resistance (I, R) or sensitivity (S)","Escherichia coli; E. coli phenotype Ll penicillinase, six wafers",S
same,"resistance (I, R) or sensitivity (S)","Escherichia coli; E. coli phenotype Wild, six wafers in a circle",S
same,resistant (I/R) or sensitive (S),"Escherichia coli; E. coli phenotype Cephalosporinase + R to fluoroquinolones + R to cotrimoxazole + partial R to aminosides, sixteen wafers",R
same,resistant (I/R) or sensitive (S),"Escherichia coli; E. coli phenotype Hl penicillinase + R to fluoroquinolones + R to cotrimoxazole + partial R to aminosides, sixteen wafers",S
same,resistant (I/R) or sensitive (S),"Escherichia coli; E. coli phenotype Wild, sixteen wafers in a rectangular grid",S
same,synergy phenotype between antibiotics,BSBL bacteria,synergy
